Laboratory results: ChEMBL document CHEMBL5154930, “Design, Synthesis, and Biological Evaluations of DOT1L Peptide Mimetics Targeting the Protein-Protein Interactions between DOT1L and MLL-AF9/MLL-ENL” (J Med Chem, 2022)
Non-standard residues stand in square brackets, D forms with d. Residues, ends and D or L forms follow the SMILES beside them. *: point of attachment. X6 = c1ccc(C[C@H](N*)c2nc3cccc(-c4ccccc4)c3[nH]2)cc1; X7 = CC[C@H](C)[C@H](N*)c1nc2cccc(-c3ccccc3)c2[nH]1; X3 = CC(C)C[C@H](N*)c1nc2cccc(-c3ccccc3)c2[nH]1; X5 = c1ccc(-c2cccc3nc([C@@H]4CCCN4*)[nH]c23)cc1; X4 = CC(C)[C@H](N*)c1nc2cccc(-c3ccccc3)c2[nH]1; X1 = C[C@H](N*)c1nc2cccc(-c3ccccc3)c2[nH]1; Ala(cPent) = N[C@@H](CC1CCCC1)C(=O)O; Pentanoyl(4-Me) = CC(C)CCC(=O)*; Dap(Me) = CNC[C@H](N)C(=O)O; Dap = NC[C@H](N)C(=O)O; Bz = O=C(c1ccccc1)*

Tests used:
Protein AF-9 = molecular target: T1, Protein AF-9 (Homo sapiens, UniProt P42568); test: Binding affinity to MBP-tagged human recombinant AF9 (487 to 568 residues) incubated for 40 mins by measuring fluorescence polarization by microplate reader method
T1 sequence (P42568 whole entry): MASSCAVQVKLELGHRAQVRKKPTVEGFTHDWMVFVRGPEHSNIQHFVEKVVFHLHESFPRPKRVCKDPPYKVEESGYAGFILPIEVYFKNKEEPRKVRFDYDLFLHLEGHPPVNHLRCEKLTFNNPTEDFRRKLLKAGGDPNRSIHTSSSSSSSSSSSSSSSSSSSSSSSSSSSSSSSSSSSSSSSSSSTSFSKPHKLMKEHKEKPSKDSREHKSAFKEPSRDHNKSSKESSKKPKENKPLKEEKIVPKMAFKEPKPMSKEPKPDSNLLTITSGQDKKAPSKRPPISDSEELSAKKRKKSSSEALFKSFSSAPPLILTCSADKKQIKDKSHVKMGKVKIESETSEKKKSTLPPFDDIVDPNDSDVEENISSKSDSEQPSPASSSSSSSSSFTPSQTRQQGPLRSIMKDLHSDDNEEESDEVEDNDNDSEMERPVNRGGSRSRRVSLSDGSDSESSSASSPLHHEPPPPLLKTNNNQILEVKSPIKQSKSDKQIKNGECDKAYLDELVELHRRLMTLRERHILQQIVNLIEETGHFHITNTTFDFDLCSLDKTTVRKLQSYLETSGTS

KOPN-8 = test: cells; details: Homo sapiens, KOPN-8, 192 h
Description: Anticancer activity against human KOPN-8 cells harbouring MLL-ENL assessed as inhibition of cell growth treated for 8 days measured by CCK-8 kit method

MOLM-13 [1] = test: cells; details: Homo sapiens, MOLM-13, 192 h
Description: Anticancer activity against human MOLM-13 cells harbouring MLL-AF9 assessed as inhibition of cell growth treated for 8 days measured by CCK-8 kit method

MOLM-13 [2] = test: cells; details: Homo sapiens, MOLM-13, 120 h
Description: Anticancer activity against human MOLM-13 cells harbouring MLL-AF9 assessed as inhibition of cell growth treated for 5 days measured by CCK-8 kit method

MOLM-13 [3] = test: cells; details: Homo sapiens, MOLM-13, 144 h
Description: Anticancer activity against human MOLM-13 cells harbouring MLL-AF9 assessed as inhibition of cell growth treated for 6 days measured by CCK-8 kit method

MOLM-13 [4] = test: cells; details: Homo sapiens, MOLM-13, 168 h
Description: Anticancer activity against human MOLM-13 cells harbouring MLL-AF9 assessed as inhibition of cell growth treated for 7 days measured by CCK-8 kit method

[5] = Stability in human plasma assessed as compound remaining measured upto 1440 mins by HPLC analysis; assay type: ADME, cell-free; details: read-out: Stability
MOLM-13 [6] = test: cells; details: Homo sapiens, MOLM-13, 96 h
Description: Anticancer activity against human MOLM-13 cells harbouring MLL-AF9 assessed as inhibition of cell growth treated for 4 days measured by CCK-8 kit method

MV4-11 = test: Anticancer activity against human MV4-11 cells assessed as inhibition of cell growth treated for 8 days measured by CCK-8 kit method; assay type: functional, cell-based; details: MV4-11, 192 h
K562 = test: Anticancer activity against human K562 cells assessed as inhibition of cell growth treated for 8 days measured by CCK-8 kit method; assay type: functional, cell-based; details: K562, 192 h
[7] = Apparent permeability across apical to basolateral side in human Caco-2 cells; assay type: ADME, cell-based
RS4-11 = test: Anticancer activity against human RS4-11 cells assessed as inhibition of cell growth treated for 8 days measured by CCK-8 kit method; assay type: functional, cell-based; details: RS4-11, 192 h
MOLM-13 [8] = test: cells; details: Homo sapiens, MOLM-13, 216 h
Description: Anticancer activity against human MOLM-13 cells harbouring MLL-AF9 assessed as inhibition of cell growth treated for 9 days measured by CCK-8 kit method

SMILES | Ki (Protein AF-9) [nM] | IC50 (KOPN-8) [nM] | IC50 (MOLM-13 [1]) [nM] | also measured
CC[C@@H](C)[C@H](NC(=O)[C@@H]1CCCN1C(=O)[C@H](CC(C)C)NC(C)=O)C(=O)N[C@@H](CO)C(=O)N[C@H](C(=O)N1CCC[C@H]1C(=O)N[C@@H](CC(C)C)C(=O)N(C)C)[C@@H](C)CC | 160 | – | – | –
CNC[C@H](NC(=O)[C@@H](NC(=O)[C@@H]1CCCN1C(=O)c1ccccc1)C(C)C)C(=O)N[C@@H](CC1CCCC1)C(=O)N[C@@H](C)c1nc2cccc(-c3ccccc3)c2[nH]1 (Bz-PV[Dap(Me)][Ala(cPent)]-X1) | 32 | 670 | 740 | –
CC[C@H](C)[C@H](NC(=O)[C@H](CO)NC(=O)[C@@H](NC(=O)[C@@H]1CCCN1C(=O)[C@H](CC(C)C)NC(C)=O)C(C)C)C(=O)N1CCC[C@H]1C(=O)N[C@@H](CC(C)C)C(=O)N(C)C (HELM PEPTIDE1{[ac].L.P.V.S.I.P.L.[CN(C)[*:1]]}$$$$V2.0) | 160 | – | – | –
CC(C)CCC(=O)N1CCC[C@H]1C(=O)N[C@H](C(=O)N[C@@H](CN)C(=O)N[C@@H](CC1CCCC1)C(=O)N[C@@H](C)c1nc2cccc(-c3ccccc3)c2[nH]1)C(C)C ({Pentanoyl(4-Me)}-PV[Dap][Ala(cPent)]-X1) | 9 | 190 | 150 | IC50 (MOLM-13 [2]): 932 nM; IC50 (MOLM-13 [3]): 589 nM; IC50 (MOLM-13 [4]): 257 nM; remaining at 24 h [5]: 83%; IC50 (MOLM-13 [6]): 1290 nM; IC50 (MV4-11): 140 nM; IC50 (K562): 33000 nM; Papp A→B [7]: 1.82 ×10⁻⁶ cm/s; IC50 (RS4-11): 380 nM; IC50 (MOLM-13 [8]): 94 nM
CC(C)(C)NCC(O)COc1cccc2c1CC(O)C(O)C2 (stereo not drawn) [NADOLOL] | – | – | – | remaining at 24 h [5]: 97.1%; Papp A→B [7]: 0.13 ×10⁻⁶ cm/s
CC(C)NCC(O)COc1cccc2ccccc12 (stereo not drawn) [PROPRANOLOL] | – | – | – | remaining at 24 h [5]: 72.9%; Papp A→B [7]: 18.5 ×10⁻⁶ cm/s

The next lines start with results.

Ki (Protein AF-9) [nM] | IC50 (KOPN-8) [nM] | IC50 (MOLM-13 [1]) [nM] | SMILES | also measured
17 | 440 | 460 | CC(=O)N[C@@H](CC(C)C)C(=O)N1CCC[C@H]1C(=O)N[C@H](C(=O)N[C@@H](CN)C(=O)N[C@@H](CC1CCCC1)C(=O)N[C@@H](C)c1nc2cccc(-c3ccccc3)c2[nH]1)C(C)C (Ac-LPV[Dap][Ala(cPent)]-X1) | –
19 | 430 | 490 | CC(=O)N[C@@H](CC(C)C)C(=O)N1CCC[C@H]1C(=O)N[C@H](C(=O)N[C@@H](CN)C(=O)N[C@@H](CC1CCCC1)C(=O)N[C@@H](CC(C)C)c1nc2cccc(-c3ccccc3)c2[nH]1)C(C)C (Ac-LPV[Dap][Ala(cPent)]-X3) | –
29 | 750 | 640 | CC(=O)N[C@@H](CC(C)C)C(=O)N1CCC[C@H]1C(=O)N[C@H](C(=O)N[C@@H](CN)C(=O)N[C@@H](CC1CCCC1)C(=O)N[C@H](c1nc2cccc(-c3ccccc3)c2[nH]1)C(C)C)C(C)C (Ac-LPV[Dap][Ala(cPent)]-X4) | –
22 | 680 | 500 | CC(=O)N[C@@H](CC(C)C)C(=O)N1CCC[C@H]1C(=O)N[C@H](C(=O)N[C@@H](CN)C(=O)N[C@@H](CC1CCCC1)C(=O)N1CCC[C@H]1c1nc2cccc(-c3ccccc3)c2[nH]1)C(C)C (Ac-LPV[Dap][Ala(cPent)]-X5) | –
13 | 410 | 440 | CC(=O)N[C@@H](CC(C)C)C(=O)N1CCC[C@H]1C(=O)N[C@H](C(=O)N[C@@H](CN)C(=O)N[C@@H](CC1CCCC1)C(=O)N[C@@H](Cc1ccccc1)c1nc2cccc(-c3ccccc3)c2[nH]1)C(C)C (Ac-LPV[Dap][Ala(cPent)]-X6) | –
23 | 480 | 610 | CC[C@H](C)[C@H](NC(=O)[C@H](CC1CCCC1)NC(=O)[C@H](CN)NC(=O)[C@@H](NC(=O)[C@@H]1CCCN1C(=O)[C@H](CC(C)C)NC(C)=O)C(C)C)c1nc2cccc(-c3ccccc3)c2[nH]1 (Ac-LPV[Dap][Ala(cPent)]-X7) | –
15 | 330 | 310 | CC(C)[C@H](NC(=O)[C@@H]1CCCN1C(=O)c1ccccc1)C(=O)N[C@@H](CN)C(=O)N[C@@H](CC1CCCC1)C(=O)N[C@@H](C)c1nc2cccc(-c3ccccc3)c2[nH]1 (Bz-PV[Dap][Ala(cPent)]-X1) | –
